{"source": "patent US7728106B2", "about": "“HIV-1 glycopeptides and derivatives; preparation and applications thereof” (University of Maryland Biotechnology Institute, priority 2005, dated 2010)", "key": {"furin": {"biological_target": "T1, furin (Homo sapiens, UniProt P09958)", "T1 construct": "purchased Sigma", "T1 sequence (P09958 108-794, species assumed)": "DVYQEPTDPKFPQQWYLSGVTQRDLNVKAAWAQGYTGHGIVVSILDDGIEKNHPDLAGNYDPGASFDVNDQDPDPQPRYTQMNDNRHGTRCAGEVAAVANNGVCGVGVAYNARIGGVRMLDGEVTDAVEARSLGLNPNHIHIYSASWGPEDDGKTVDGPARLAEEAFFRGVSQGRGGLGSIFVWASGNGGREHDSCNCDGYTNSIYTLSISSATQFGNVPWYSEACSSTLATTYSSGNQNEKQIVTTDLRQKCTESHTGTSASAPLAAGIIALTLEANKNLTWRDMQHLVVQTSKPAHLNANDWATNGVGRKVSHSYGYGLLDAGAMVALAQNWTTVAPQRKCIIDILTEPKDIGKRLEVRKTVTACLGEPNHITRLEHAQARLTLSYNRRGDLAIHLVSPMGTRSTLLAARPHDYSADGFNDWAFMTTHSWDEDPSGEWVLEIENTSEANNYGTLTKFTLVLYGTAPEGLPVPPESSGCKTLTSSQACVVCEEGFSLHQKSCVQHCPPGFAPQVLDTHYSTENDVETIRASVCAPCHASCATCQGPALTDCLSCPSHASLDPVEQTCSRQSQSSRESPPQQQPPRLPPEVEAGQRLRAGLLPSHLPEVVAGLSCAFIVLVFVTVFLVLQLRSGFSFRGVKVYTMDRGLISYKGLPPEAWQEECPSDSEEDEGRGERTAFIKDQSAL", "assay": "Stability toward furin digestion", "assay_type": "in vitro ADME", "settings": "40 μM peptide, phosphate buffer pH 7.0, 10 units furin, 16 hours, 30° C.; HPLC; FIG. 7A", "protocol": "To test this, a quick experiment was performed on the resistance of the synthetic V3 glycopeptides against different proteases. The protease furin was reported to be able to cleave the V3 domain of gp120 at the sequence 302-312 [134-136]. Therefore, the stability of the synthetic glycopeptides toward furin digestion was initially examined. The enzyme was obtained from Sigma and the digestion was monitored by HPLC and ESI-MS analysis.\n(§1) FIG. 7A is a graph for digestion with furin, under reaction conditions involving a solution of each peptide (40 μM) in a phosphate buffer (pH 7.0, total 30 μl) incubated with 10 units of furin (Sigma; a unit being defined by the amount of furin that hydrolyzes one pmol substrate in 1 minute under the optimal condition) for 16 hours at 30° C., and the remaining starting peptide was quantified by HPLC and confirmed by ESI-MS determination. FIG. 7B is a graph for digestion with pronase under reaction conditions involving a solution of each peptide (40 μM) in a phosphate buffer (pH 7.4, total 100 μl) incubated with 125 ng of pronase (Sigma) for 40 minutes at 30° C., and the remaining starting peptide was quantified by HPLC and confirmed by ESI-MS determination.\n(§2) Next, the stability of the V3 glycopeptides against pronase digestion was tested. The pronase (Actinase E, Sigma) is a mixture of at least three proteolytic activities."}, "pronase (Actinase E)": {"test_system": "pronase (Actinase E)", "assay": "Stability toward pronase digestion", "assay_type": "in vitro ADME", "settings": "40 μM peptide, phosphate buffer pH 7.4, 125 ng pronase, 40 minutes, 30° C.; HPLC; FIG. 7B", "protocol": "as §1, §2"}}, "data": [{"compound": "CC[C@H](C)[C@@H]1NC(=O)[C@H](CCCCN)NC(=O)CNC(=O)[C@H]([C@@H](C)CC)NC(=O)[C@H]([C@@H](C)O)NC(=O)[C@H](C(C)C)NC(=O)[C@H](Cc2ccccc2)NC(=O)[C@H](C)NC(=O)[C@H](CCCNC(=N)N)NC(=O)CNC(=O)[C@@H]2CCCN2C(=O)CNC(=O)[C@H](CCCNC(=N)N)NC(=O)[C@H](CCC(N)=O)NC(=O)[C@H]([C@@H](C)CC)NC(=O)[C@H](CCCNC(=N)N)NC(=O)[C@H]([C@@H](C)CC)NC(=O)[C@H](CCCNC(=N)N)NC(=O)[C@H](CCCCN)NC(=O)[C@H](CCCNC(=N)N)NC(=O)[C@H]([C@@H](C)O)NC(=O)[C@H](CC(N)=O)NC(=O)[C@H](CC(N)=O)NC(=O)[C@H](CC(N)=O)NC(=O)[C@@H]2CCCN2C(=O)[C@H](CCCNC(=N)N)NC(=O)[C@H]([C@@H](C)O)NC(=O)[C@@H](NC(=O)[C@H](CC(=O)N[C@@H]2O[C@H](CO)[C@@H](O[C@@H]3O[C@H](CO)[C@@H](O[C@@H]4O[C@H](CO[C@H]5O[C@H](CO)[C@@H](O)[C@H](O)[C@@H]5O)[C@@H](O)[C@H](O[C@H]5O[C@H](CO)[C@@H](O)[C@H](O)[C@@H]5O)[C@@H]4O)[C@H](O)[C@H]3NC(C)=O)[C@H](O)[C@H]2NC(C)=O)NC(=O)[C@@H](NC(=O)[C@H](CCC(=O)O)NC(=O)[C@@H](NC(=O)[C@H](CO)NC(=O)[C@@H](N)[C@@H](C)O)C(C)C)[C@@H](C)CC)CSSC[C@@H](C(=O)N[C@@H](CC(=O)N[C@@H]2O[C@H](CO)[C@@H](O[C@@H]3O[C@H](CO)[C@@H](O[C@@H]4O[C@H](CO[C@H]5O[C@H](CO)[C@@H](O)[C@H](O)[C@@H]5O)[C@@H](O)[C@H](O[C@H]5O[C@H](CO)[C@@H](O)[C@H](O)[C@@H]5O)[C@@H]4O)[C@H](O)[C@H]3NC(C)=O)[C@H](O)[C@H]2NC(C)=O)C(=O)N[C@H](C(=O)N[C@@H](CO)C(=O)N[C@@H](CCCNC(=N)N)C(=O)N[C@@H](C)C(N)=O)[C@@H](C)CC)NC(=O)[C@H](Cc2c[nH]cn2)NC(=O)[C@H](C)NC(=O)[C@H](CCC(N)=O)NC(=O)[C@H](CCCNC(=N)N)NC(=O)[C@H](CCSC)NC(=O)[C@H](CC(N)=O)NC(=O)CNC1=O", "note": "[HB-V3-(G2M3)2]", "values": [{"measurement": "stability toward furin digestion (remaining starting peptide)", "setting": "furin", "value": "most stable"}, {"measurement": "stability toward pronase digestion (remaining starting peptide)", "setting": "pronase (Actinase E)", "value": "most stable"}]}]}
